Target: T1, P. falciparum Fam-A (PF3D7_1463500) (Plasmodium falciparum, UniProt Q8IKK1)
T1 construct: region encoding START domain, codon-optimised, cloned in pMALc2x, N-terminal His6, E. coli BL21(DE3), Ni and SEC, monomeric
Assay: […]-PC transfer from donor to acceptor vesicles
Format: biochemical
Settings: pH 7.4, 37 °C, 30 min, 25 μg/ml protein, BSA 1 mg/ml; labelled compound (14C)

T1 sequence (Q8IKK1 entry or part of it): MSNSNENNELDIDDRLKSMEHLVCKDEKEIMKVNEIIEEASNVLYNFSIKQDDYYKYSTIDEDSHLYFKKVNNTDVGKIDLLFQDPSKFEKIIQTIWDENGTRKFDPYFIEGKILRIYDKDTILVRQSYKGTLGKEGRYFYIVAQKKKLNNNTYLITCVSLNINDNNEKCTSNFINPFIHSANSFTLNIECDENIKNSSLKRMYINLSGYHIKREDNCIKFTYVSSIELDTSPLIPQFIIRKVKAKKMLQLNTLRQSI

CCCCCCCCCCCCCCCC(=O)OC[C@H](COP(=O)([O-])OCC[N+](C)(C)C)OC(=O)CCCCCCCCCCCCCCC [L-α-DiPalmitoyl-Phosphatidylcholine]
PC transfer activity: P. falciparum Fam-A reproducibly showed a lower, but detectable, level of PC transfer activity
